# Data: ChEMBL document CHEMBL5728485, “Biaryloxy derivatives as TTX-S blockers” (2021)
# Target: Sodium channel protein type 9 subunit alpha (Homo sapiens, UniProt Q15858)
# Experiment: EFS-FRET Assay: This screen is used to determine the effects of compounds on human Nav1.7 channels, utilizing electrical field stimulation (EFS) system in 96-well plate format on FDSS (Hamamatsu Photonics) platform. The changes of membrane potential are monitored with FRET dye pair, DiSBAC2(3) and PTS 18.
# Sequence of Sodium channel protein type 9 subunit alpha (Q15858 whole entry): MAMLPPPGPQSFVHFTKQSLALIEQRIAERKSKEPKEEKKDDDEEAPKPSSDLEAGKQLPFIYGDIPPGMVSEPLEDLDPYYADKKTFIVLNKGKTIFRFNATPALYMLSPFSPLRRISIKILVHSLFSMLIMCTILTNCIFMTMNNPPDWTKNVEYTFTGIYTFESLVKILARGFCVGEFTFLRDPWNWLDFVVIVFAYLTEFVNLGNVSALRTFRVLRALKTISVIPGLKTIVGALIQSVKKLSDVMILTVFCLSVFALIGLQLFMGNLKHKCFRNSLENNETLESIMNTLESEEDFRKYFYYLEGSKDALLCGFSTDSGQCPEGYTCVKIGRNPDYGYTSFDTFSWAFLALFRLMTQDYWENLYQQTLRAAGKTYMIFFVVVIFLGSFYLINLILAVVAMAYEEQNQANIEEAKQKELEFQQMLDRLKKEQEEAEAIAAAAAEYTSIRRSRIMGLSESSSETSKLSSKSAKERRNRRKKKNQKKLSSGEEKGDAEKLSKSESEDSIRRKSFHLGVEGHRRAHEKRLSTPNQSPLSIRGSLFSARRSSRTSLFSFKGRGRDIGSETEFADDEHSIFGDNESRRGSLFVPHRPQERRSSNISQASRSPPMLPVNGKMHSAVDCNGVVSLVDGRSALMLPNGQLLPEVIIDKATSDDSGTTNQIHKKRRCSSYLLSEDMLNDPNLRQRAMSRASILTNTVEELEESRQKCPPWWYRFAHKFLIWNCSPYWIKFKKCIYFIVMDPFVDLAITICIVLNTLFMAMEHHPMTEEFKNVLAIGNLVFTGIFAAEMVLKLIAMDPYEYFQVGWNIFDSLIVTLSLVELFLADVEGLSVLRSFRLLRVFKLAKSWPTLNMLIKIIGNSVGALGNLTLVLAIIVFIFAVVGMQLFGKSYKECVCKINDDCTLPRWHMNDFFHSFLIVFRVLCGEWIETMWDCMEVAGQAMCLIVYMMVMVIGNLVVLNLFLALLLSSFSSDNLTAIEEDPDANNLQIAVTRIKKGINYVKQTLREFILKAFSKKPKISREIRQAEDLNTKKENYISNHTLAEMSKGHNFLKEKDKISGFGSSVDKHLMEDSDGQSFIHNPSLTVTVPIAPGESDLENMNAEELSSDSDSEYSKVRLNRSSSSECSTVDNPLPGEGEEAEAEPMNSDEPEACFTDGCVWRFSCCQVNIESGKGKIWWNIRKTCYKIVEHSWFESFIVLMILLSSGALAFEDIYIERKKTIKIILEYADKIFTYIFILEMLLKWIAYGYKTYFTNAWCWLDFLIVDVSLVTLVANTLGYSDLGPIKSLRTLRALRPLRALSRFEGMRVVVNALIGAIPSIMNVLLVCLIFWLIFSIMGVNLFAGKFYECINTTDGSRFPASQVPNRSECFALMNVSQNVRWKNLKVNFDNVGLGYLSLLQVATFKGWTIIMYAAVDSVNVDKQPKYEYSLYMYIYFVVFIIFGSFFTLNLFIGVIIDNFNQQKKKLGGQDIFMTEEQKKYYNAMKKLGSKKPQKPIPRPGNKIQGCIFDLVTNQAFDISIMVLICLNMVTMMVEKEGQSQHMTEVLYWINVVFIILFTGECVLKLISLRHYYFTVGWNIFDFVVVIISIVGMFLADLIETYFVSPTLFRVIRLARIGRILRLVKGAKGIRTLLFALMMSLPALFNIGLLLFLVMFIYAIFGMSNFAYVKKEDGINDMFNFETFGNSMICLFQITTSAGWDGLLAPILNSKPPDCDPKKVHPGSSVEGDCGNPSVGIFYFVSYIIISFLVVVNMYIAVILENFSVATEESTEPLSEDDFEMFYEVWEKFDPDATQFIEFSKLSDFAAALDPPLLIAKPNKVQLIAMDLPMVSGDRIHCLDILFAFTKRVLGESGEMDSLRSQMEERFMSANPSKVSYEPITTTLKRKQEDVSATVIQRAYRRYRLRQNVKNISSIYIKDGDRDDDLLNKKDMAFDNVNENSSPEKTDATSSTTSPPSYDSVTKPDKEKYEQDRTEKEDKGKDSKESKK
row,IC50,Compound
1,< 500 nM,Cc1c(-c2cccc(OCc3ccc(C(=O)NS(C)(=O)=O)cc3F)c2)ccnc1OCC1CC1
2,< 500 nM,Cn1cc(-c2cc(OCc3ccc(C(=O)NS(C)(=O)=O)cc3)cc(-c3ccc(OCC4CC4)nc3)c2)cn1
3,< 500 nM,O=C(NS(=O)(=O)c1cccs1)c1ccc(COc2cc(F)cc(-c3ccc(OCC4CC4)nc3)c2)cc1
4,< 500 nM,CC(C)S(=O)(=O)NC(=O)c1ccc(COc2cc(F)cc(-c3ccc(OCC4CC4)nc3)c2)cc1
5,< 500 nM,Cc1cc(-c2cccc(OCc3ccc(C(=O)NS(C)(=O)=O)cc3)c2)cnc1OCC1CC1
6,< 500 nM,CS(=O)(=O)NC(=O)c1ccc(COc2cc(C#N)cc(-c3ccc(OCC4CC4)nc3)c2)cc1
7,< 500 nM,Cc1cc(OCC2CC2)cnc1-c1cccc(OCc2ccc(C(=O)NS(C)(=O)=O)cc2F)c1
8,< 500 nM,CS(=O)(=O)NC(=O)c1ccc(COc2cccc(-c3ncc(OCC4CC4)cc3F)c2)c(F)c1
9,< 500 nM,CS(=O)(=O)NC(=O)c1ccc(COc2cccc(-c3cnc(OCC4CC4)c(Cl)c3)c2)c(F)c1
10,< 500 nM,Cc1c(-c2cc(F)cc(OCc3ccc(C(=O)NS(C)(=O)=O)cc3)c2)ccnc1OCC1CC1
11,< 500 nM,O=C(NS(=O)(=O)C1CC1)c1ccc(COc2cc(-c3ccc(OCC4CC4)nc3)ccn2)cc1
12,< 500 nM,COc1cc(C(=O)NS(C)(=O)=O)ccc1COc1cccc(-c2ccc(OCC3CC3)nc2)c1
13,< 500 nM,CS(=O)(=O)NC(=O)c1cc(C2CC2)c(COc2cccc(-c3ccc(OCC4CC4)nc3)c2)cc1F
14,< 500 nM,CN(C)C(=O)COc1cc(OCC2CC2)cc(-c2cc(F)cc(OCc3ccc(C(=O)NS(C)(=O)=O)cc3F)c2)c1
15,< 500 nM,CS(=O)(=O)NC(=O)c1ccc(COc2cc(F)cc(-c3ncc(OCC4CC4)cn3)c2)cc1
16,< 500 nM,CS(=O)(=O)NC(=O)c1ccc(COc2cccc(-c3cncc(OCC4CC4)c3)c2)cc1
17,< 500 nM,CS(=O)(=O)NC(=O)c1ccc(COc2cccc(-c3ccc(OCC4CCC4)nc3CO)c2)c(F)c1
18,< 500 nM,CS(=O)(=O)NC(=O)c1ccc(COc2cc(F)cc(-c3cnc(OCC4CC4)cn3)c2)cc1
19,< 500 nM,CS(=O)(=O)NC(=O)c1ccc(COc2cc(F)cc(-c3cnc(OCC4CC4)nc3)c2)cc1
20,< 500 nM,CS(=O)(=O)NC(=O)c1ccc(COc2cc(F)cc(-c3ccnc(OCC4CC4)c3)c2)cc1
21,< 500 nM,CS(=O)(=O)NC(=O)c1ccc(COc2cccc(-c3ccnc(OCC4CC4)c3)c2)c(F)c1
22,< 500 nM,CS(=O)(=O)NC(=O)c1cc(F)c(COc2cccc(-c3ccc(OCC4CC4)nc3)c2)c(F)c1

row,IC50,Compound
1,< 500 nM,CS(=O)(=O)NC(=O)c1ccc(COc2cc(F)cc(-c3ncc(OCC4CC4)cc3F)c2)cc1
2,< 500 nM,CS(=O)(=O)NC(=O)c1ccc(COc2cc(-c3ccc(OCC4CC4)nc3)cc(C3CC3)c2)cc1
3,< 500 nM,O=C(NS(=O)(=O)C1CC1)c1ccc(COc2cccc(-c3ncc(OCC4CC4)cn3)c2)cc1
4,< 500 nM,Cc1nc(OCC2CC2)ccc1-c1cccc(OCc2ccc(C(=O)NS(C)(=O)=O)cc2)c1
5,< 500 nM,CS(=O)(=O)NC(=O)c1ccc(COc2cc(F)cc(-c3cncc(OCC4CC4)c3)c2)cc1
6,< 500 nM,O=C(NS(=O)(=O)c1cccs1)c1ccc(COc2cccc(-c3ccc(OCC4CC4)nc3)c2)cc1
7,< 500 nM,CC(C)(C)OC(=O)N1CCC(COc2ccc(-c3cccc(OCc4ccc(C(=O)NS(C)(=O)=O)cc4)c3)cn2)CC1
8,< 500 nM,CS(=O)(=O)NC(=O)c1ccc(COc2cc(Cl)cc(-c3ccc(OCC4CC4)nc3)c2)cc1
9,< 500 nM,CCS(=O)(=O)NC(=O)c1ccc(COc2cccc(-c3ccc(OCC4CC4)nc3)c2)c(F)c1
10,< 500 nM,CS(=O)(=O)NC(=O)c1ccc(COc2cccc(-c3ccc(OCC4CC4)nc3)c2)cc1F
11,< 500 nM,CS(=O)(=O)NC(=O)c1ccc(COc2cccc(-c3ccc(OCC4CCC4)nc3)c2)nc1
12,< 500 nM,CS(=O)(=O)NC(=O)c1ccc(COc2ccc(Cl)c(-c3ccc(OCC4CC4)nc3)c2)cc1
13,< 500 nM,COCCOc1cc(OCC2CC2)cc(-c2cc(F)cc(OCc3ccc(C(=O)NS(C)(=O)=O)cc3F)c2)c1
14,< 500 nM,CS(=O)(=O)NC(=O)c1ccc(COc2cccc(-c3ccc(OCC4CC4)nc3)n2)cc1
15,< 500 nM,O=C(NS(=O)(=O)C1CC1)c1ccc(COc2cccc(-c3cnc(OCC4CC4)cn3)c2)cc1
16,< 500 nM,CS(=O)(=O)NC(=O)c1ccc(COc2cccc(-c3cnc(OCC4CCC4)c(CO)c3)c2)cc1
17,< 500 nM,CN(C)C(=O)c1cc(-c2cccc(OCc3ccc(C(=O)NS(C)(=O)=O)cc3F)c2)ccc1OCC1CC1
18,< 500 nM,CS(=O)(=O)NC(=O)c1ccc(COc2cccc(-c3ccc(OCC4CCOC4)nc3)c2)c(F)c1 (configuration not stated)
19,< 500 nM,O=C(NS(=O)(=O)C1CC1)c1ccc(COc2cc(F)cc(-c3ccc(OCC4CC4)nc3)c2)c(F)c1
20,< 500 nM,CS(=O)(=O)NC(=O)c1ccc(COc2ccc(F)c(-c3cnc(OCC4CC4)c(Cl)c3)c2)c(F)c1
21,< 500 nM,O=C(NS(=O)(=O)c1nccs1)c1ccc(COc2cccc(-c3ccc(OCC4CC4)nc3)c2)c(F)c1
22,< 500 nM,Cc1nc(OCC2CC2)ccc1-c1cccc(OCc2ccc(C(=O)NS(C)(=O)=O)cc2F)c1

row,IC50,Compound
1,< 500 nM,O=C(NS(=O)(=O)c1cccs1)c1cc(Cl)c(COc2cccc(-c3ccc(OCC4CC4)nc3)c2)cc1F
2,< 500 nM,CS(=O)(=O)NC(=O)c1ccc(COc2cc(-c3ccc(OCC4CC4)nc3)ccc2Cl)cc1
3,< 500 nM,Cc1cc(OCC2CC2)ncc1-c1cc(F)cc(OCc2ccc(C(=O)NS(C)(=O)=O)cc2)c1
4,< 500 nM,CS(=O)(=O)NC(=O)c1ccc(COc2cccc(-c3ccc(OCC4CC4)nc3)c2)nc1
5,< 500 nM,Cc1nc(OCC2CC2)ccc1-c1cc(OCc2ccc(C(=O)NS(C)(=O)=O)cc2F)ccc1F
6,< 500 nM,CS(=O)(=O)NC(=O)c1ccc(COc2cccc(-c3cncc(OCC4CC4)c3)c2)c(F)c1
7,< 500 nM,CS(=O)(=O)NC(=O)c1cc(OC(F)F)c(COc2cccc(-c3ccc(OCC4CC4)nc3)c2)cc1F
8,< 500 nM,CS(=O)(=O)NC(=O)c1ccc(COc2cc(F)cc(-c3ccc(OCC4CCOC4)nc3)c2)cc1 (configuration not stated)
9,< 500 nM,CS(=O)(=O)NC(=O)c1ccc(COc2cc(-c3cncnc3)cc(-c3ccc(OCC4CC4)nc3)c2)cc1
10,< 500 nM,CS(=O)(=O)NC(=O)c1ccc(COc2cc(F)cc(-c3cncc(OCC4CC4)n3)c2)cc1
11,< 500 nM,CS(=O)(=O)NC(=O)c1ccc(COc2cccc(-c3ccnc(OCC4CC4)c3)c2)cc1
12,< 500 nM,O=C(NS(=O)(=O)CC1CC1)c1ccc(COc2cccc(-c3ccc(OCC4CC4)nc3)c2)c(F)c1
13,< 500 nM,Cc1cc(OCC2CC2)cnc1-c1cc(F)cc(OCc2ccc(C(=O)NS(C)(=O)=O)cc2)c1
14,< 500 nM,CS(=O)(=O)NC(=O)c1ccc(COc2cccc(-c3cccnc3OCC3CC3)c2)cc1
15,< 500 nM,Cc1cc(OCC2CC2)ncc1-c1cccc(OCc2ccc(C(=O)NS(C)(=O)=O)cc2F)c1
16,< 500 nM,CS(=O)(=O)NC(=O)c1ccc(COc2ccc(F)c(-c3cccc(OCC4CC4)n3)c2)c(F)c1
17,< 500 nM,CS(=O)(=O)NC(=O)c1ccc(COc2cc(F)cc(-c3ccc(OCC4CC4)nc3)c2)c(F)c1
18,< 500 nM,Cc1cc(-c2cccc(OCc3ccc(C(=O)NS(C)(=O)=O)cc3F)c2)cnc1OCC1CC1
19,< 500 nM,CS(=O)(=O)NC(=O)c1ccc(COc2cc(-c3ccc(OCC4CC4)nc3)cc(C(F)(F)F)c2)cc1
20,< 500 nM,O=C(NS(=O)(=O)CC1CC1)c1ccc(COc2cc(F)cc(-c3ccc(OCC4CC4)nc3)c2)cc1
21,< 500 nM,CS(=O)(=O)NC(=O)c1ccc(COc2cccc(-c3ncc(OCC4CC4)cn3)c2)c(F)c1
22,< 500 nM,Cc1c(OCC2CC2)ncnc1-c1cccc(OCc2ccc(C(=O)NS(C)(=O)=O)cc2)c1

row,IC50,Compound
1,< 500 nM,CS(=O)(=O)NC(=O)c1ccc(COc2cccc(-c3cnc(OCC4CC4)nc3)c2)c(F)c1
2,< 500 nM,CS(=O)(=O)NC(=O)c1ccc(COc2cc(F)cc(-c3cc(OCC4CC4)cc(C(=O)N4CCOCC4)c3)c2)c(F)c1
3,< 500 nM,Cc1cc(OCc2ccc(C(=O)NS(=O)(=O)C3CC3)cc2F)cc(-c2ccc(OCC3CC3)nc2)c1
4,< 500 nM,Cc1cc(OCC2CCC2)cnc1-c1cccc(OCc2ccc(C(=O)NS(C)(=O)=O)cc2F)c1
5,< 500 nM,CS(=O)(=O)NC(=O)c1ccc(COc2cccc(-c3ccc(OCC4CC4)cc3)c2)cc1
6,< 500 nM,CS(=O)(=O)NC(=O)c1ccc(COc2cc(F)cc(-c3cc(OCCO)cc(OCC4CC4)c3)c2)c(F)c1
7,< 500 nM,Cc1nc(OCC2CCC2)ccc1-c1cc(F)cc(OCc2ccc(C(=O)NS(C)(=O)=O)cc2)c1
8,< 500 nM,CS(=O)(=O)NC(=O)c1cc(F)c(COc2cc(F)cc(-c3ccc(OCC4CC4)nc3)c2)cc1F
9,< 500 nM,CS(=O)(=O)NC(=O)c1ccc(COc2cccc(-c3ccc(OCC4CCOCC4)nc3)c2)cc1
10,< 500 nM,CS(=O)(=O)NC(=O)c1ccc(COc2cc(F)cc(-c3ccc(OCC4CC4)cn3)c2)cc1
11,< 500 nM,CS(=O)(=O)NC(=O)c1ccc(COc2cccc(-c3cncc(OCC4CC4)n3)c2)cc1
12,< 500 nM,CS(=O)(=O)NC(=O)c1ccc(COc2cc(F)cc(-c3cnc(OCC4CC4)c(Cl)c3)c2)c(F)c1
13,< 500 nM,CCS(=O)(=O)NC(=O)c1ccc(COc2cc(F)cc(-c3ccc(OCC4CC4)nc3)c2)cc1
14,< 500 nM,CS(=O)(=O)NC(=O)c1ccc(COc2cc(F)cc(-c3cnc(OCC4CCC4)c(CO)c3)c2)c(F)c1
15,< 500 nM,CN(CCO)Cc1cc(OCC2CC2)cc(-c2cc(F)cc(OCc3ccc(C(=O)NS(C)(=O)=O)cc3F)c2)c1
16,< 500 nM,Cc1c(OCC2CC2)ccnc1-c1cc(F)cc(OCc2ccc(C(=O)NS(C)(=O)=O)cc2)c1
17,< 500 nM,N#Cc1cc(C(=O)NS(=O)(=O)C2CC2)ccc1COc1cccc(-c2ccc(OCC3CC3)nc2)c1
18,< 500 nM,CS(=O)(=O)NC(=O)c1ccc(COc2cc(-c3ccccc3)cc(-c3ccc(OCC4CC4)nc3)c2)cc1
19,< 500 nM,CS(=O)(=O)NC(=O)c1ccc(COc2cccc(-c3ccc(OCC4CCCC4)nc3)c2)cc1
20,< 500 nM,CS(=O)(=O)NC(=O)c1ccc(COc2cc(Br)cc(-c3ccc(OCC4CC4)nc3)c2)cc1
21,< 500 nM,O=C(NS(=O)(=O)C1CC1)c1ccc(COc2cc(F)cc(-c3ccc(OCC4CC4)nc3)c2)cc1
